In ChEMBL document CHEMBL4842378, “An Enantiodefined Conformationally Constrained Fatty Acid Mimetic and Potent Inhibitor of ToxT” (ACS Med Chem Lett, 2021):
The source made the active and inactive calls. The calls are words filed in the database; no cut-off is given here.

Columns and labels:
[1] = molecular target: T1, TCP pilus virulence regulatory protein (Vibrio cholerae serotype O1 (strain ATCC 39541 / Classical Ogawa 395 /O395)) (UniProt A5F384); assay: Inhibition of wild type ToxT in Vibrio cholerae El Tor strain C6706 at 500 nM measured after 3.5 hrs by beta-galactosidase assay relative to control
T1 sequence (whole entry): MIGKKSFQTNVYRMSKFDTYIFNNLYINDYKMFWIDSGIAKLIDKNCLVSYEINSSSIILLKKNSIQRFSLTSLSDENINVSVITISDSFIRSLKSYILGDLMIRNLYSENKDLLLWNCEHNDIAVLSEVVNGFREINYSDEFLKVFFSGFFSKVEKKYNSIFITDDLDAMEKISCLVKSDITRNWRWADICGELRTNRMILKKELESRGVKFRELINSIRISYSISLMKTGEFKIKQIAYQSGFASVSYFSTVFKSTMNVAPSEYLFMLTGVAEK

[2] = molecular target: T1, TCP pilus virulence regulatory protein (Vibrio cholerae serotype O1 (strain ATCC 39541 / Classical Ogawa 395 /O395)); assay: Inhibition of ToxT in Vibrio cholerae at upto 5 uM measured after 3.5 hrs by beta-galactosidase assay relative to control; details: dose microM <=5, time 3.5 hrs
[3] = molecular target: T1, TCP pilus virulence regulatory protein (Vibrio cholerae serotype O1 (strain ATCC 39541 / Classical Ogawa 395 /O395)); assay: Inhibition of ToxT in delattoxT tcpA-linked LacZ reporter gene harboring Vibrio cholerae at 500 nM measured after 3.5 hrs by beta-galactosidase assay relative to control

Row | SMILES | inhibition [1] | inhibition [2] [%] | inhibition [3] [%]
1 | CCCC1=C2CCC[C@@]2(C)CC[C@@H]1CC/C=C/C(=O)O | Active | – | –
2 | CCCCC1=C2CCC[C@@]2(C)CC[C@@H]1CCC(=O)O | 80% | – | –
3 | O=C(O)CCCN1C(=O)c2cccc3cccc(c23)C1=O | – | 20 | –
4 | CCCCC1=C2CCC[C@]2(C)CC[C@H]1CCC(=O)O | 50% | – | –
5 | CCCC1=C2CCC[C@@]2(C)CC[C@@H]1CCC(=O)O | 60% | – | –
6 | CCCCC1=C2CCC[C@@]2(C)CC[C@@H]1CC/C=C/C(=O)O | 25% | – | –
7 | Cc1cccc2c1C(CCC(=O)O)CCC2 (racemic) | 45% | – | 80
